Experimental data from article PMC2843910 (Biochemical pharmacology, 2008).

Biological target: T1, ABCG2 (Homo sapiens, UniProt Q9UNQ0)
T1 sequence (Q9UNQ0 1-655): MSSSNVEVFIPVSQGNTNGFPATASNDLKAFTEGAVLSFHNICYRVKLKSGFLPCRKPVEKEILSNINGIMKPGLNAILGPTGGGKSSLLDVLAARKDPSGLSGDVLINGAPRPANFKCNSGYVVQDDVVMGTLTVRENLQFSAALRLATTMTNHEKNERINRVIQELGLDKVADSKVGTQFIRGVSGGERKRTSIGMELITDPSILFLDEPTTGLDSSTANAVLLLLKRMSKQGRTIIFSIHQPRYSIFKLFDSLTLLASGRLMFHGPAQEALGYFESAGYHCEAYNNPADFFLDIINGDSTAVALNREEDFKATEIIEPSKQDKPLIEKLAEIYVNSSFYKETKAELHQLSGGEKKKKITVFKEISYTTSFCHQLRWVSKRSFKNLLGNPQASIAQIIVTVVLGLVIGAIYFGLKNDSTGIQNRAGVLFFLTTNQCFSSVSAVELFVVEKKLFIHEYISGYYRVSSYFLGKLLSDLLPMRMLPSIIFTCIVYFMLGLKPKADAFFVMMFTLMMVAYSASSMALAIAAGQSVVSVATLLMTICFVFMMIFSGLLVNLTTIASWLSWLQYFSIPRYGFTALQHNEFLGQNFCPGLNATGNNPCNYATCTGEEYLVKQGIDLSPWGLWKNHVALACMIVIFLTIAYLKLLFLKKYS
Format: cell-based

`CN(Cc1cnc2nc(N)nc(N)c2n1)c1ccc(C(=O)N[C@@H](CCC(=O)O)C(=O)O)cc1` [[^3H]-methotrexate] was tested. Which “ATP-dependent uptake into membrane vesicles (rapid filtration)” value did it give?
The value was “inhibited the rates of both methotrexate and E217βG uptake in the membrane vesicles of ABCG2-482-R5”.
